The target in test [1] is T1, PPARγ (Homo sapiens, UniProt P37231).
T1 sequence (P37231 238-503 limits assumed): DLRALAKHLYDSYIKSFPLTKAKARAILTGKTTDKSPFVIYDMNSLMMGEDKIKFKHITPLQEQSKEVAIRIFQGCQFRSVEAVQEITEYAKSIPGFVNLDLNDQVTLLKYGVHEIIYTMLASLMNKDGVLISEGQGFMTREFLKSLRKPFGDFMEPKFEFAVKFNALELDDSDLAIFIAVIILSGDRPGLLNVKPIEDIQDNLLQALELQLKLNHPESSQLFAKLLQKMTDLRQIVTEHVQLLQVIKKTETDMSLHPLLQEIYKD
More on the design: method as in Leesnitzer et al., 2002. As to conditions: displacement of [3H]rosiglitazone, incubation time 1 h, ref Leesnitzer et al., 2002, read-out: Lit. Binding assay, IC50; cited from earlier work.

Test [2] has as its target T1, PPARγ. As to the kind of experiment: LanthaScreen TR-FRET binding assay, PPARγ. As to conditions: 2 h incubation, mean of 3 replicates ± SEM. The procedure:
(§1) The LanthaScreen™ TR-FRET binding assay was performed following the manufacturer's guidelines (PV4894, Invitrogen) as follows, 20 mM stock solution of the ligand or control in DMSO were serially diluted using 100% DMSO to produce a range of concentrations from 100 μM to 1 pM. The test compound solutions were mixed with the reaction buffer in a 1 (ligand) in 10 (reaction buffer) dilution for a final 2X ligand concentration. This was mixed with the reaction components (glutathione S-transferase (GST)-PPPARγLBD (0.5 nM)/, terbium (Tb)-labelled anti-GST antibody (5 nM) and Fluormone pan-PPAR green (5 nM for PPARγ; 20 nM for PPARα) at room temperature in a ratio of 8 μLl 2X ligand solution: 4 μLl of 4XFluormone: and 4 μLl 4X GST-PPPARγLBD/terbium (Tb)-labelled anti-GST antibody to produce a final reaction mixture volume of 16 μL. The concentration of DMSO in the final reaction mixture was 5%. The reaction mixture was kept at room temperature for 2 h prior to recording the TR-FRET emission spectra using a CLARIOstar Plus microplate reader (BMG Labtech). […] Results are expressed as the ratio of fluorescence intensity at 520 nm (Fluormone emission) and 490 nm (Tb emission). […] For each compound three serial dilutions were prepared and measured separately. The IC50 and SEM values were determined using a sigmoidal dose-response equation with varying slope using GraphPad Prism.
For orientation: Time-resolved FRET reads energy transfer from a long-lived donor to a nearby acceptor.

The target of test [3] is T2, PPARα (Homo sapiens, UniProt Q07869).
T2 sequence (Q07869 239-466 limits assumed): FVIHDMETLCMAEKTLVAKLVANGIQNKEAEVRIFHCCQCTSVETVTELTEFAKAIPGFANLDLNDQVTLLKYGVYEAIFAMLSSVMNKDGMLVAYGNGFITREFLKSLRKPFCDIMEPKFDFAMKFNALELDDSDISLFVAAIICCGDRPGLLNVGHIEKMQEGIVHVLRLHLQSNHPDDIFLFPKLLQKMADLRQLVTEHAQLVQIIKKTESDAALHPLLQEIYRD
In words: LanthaScreen TR-FRET binding assay, PPARα. The conditions noted are these: 2 h incubation, mean of 3 replicates ± SEM. The procedure: as §1

For test [4], the target named is T2, PPARα. Further details: method as in Leesnitzer et al., 2002. The conditions noted are these: displacement of [3H]GW2331, incubation time 1 h, ref Leesnitzer et al., 2002, read-out: Lit. Binding assay, IC50; cited from earlier work. In general terms: Displacement assays read how much labelled ligand stays bound in the presence of the test substance.
Test [5] has as its target T1, PPARγ. As to the kind of experiment: HG5LN reporter cell assay, PPARγ-mediated transcription. It is filed as cell-based. Further details: expressed in transfected cells; host or cells: HG5LN (HeLa-derived, GAL4RE-luciferase). The text has this: (§2) Nuclear receptors, including PPARα and γ, are ligand-inducible transcription factors that form heterodimers with retinoid X receptors and bind to specific DNA sites located in the enhancer/promoter region of target genes, releasing co-repressors and/or recruiting co-activators ([Wang, 2010]). We therefore assessed the functional consequences of the ligands on PPARα and γ-mediated transcriptional activation in reporter cell lines. These cell lines were generated as previously reported by a two-step transfection procedure ([Seimandi et al., 2005]). First, a stable cell line, HG5LN, expressing the reporter gene (GAL4RE-luciferase) was developed from the HeLa cell line. These cells were then transfected with a plasmid expressing the C-terminal ligand-binding domain of PPARα or γ fused to GAL4 DNA-binding domain. The parental HG5LN cells were used as a control to test non-specific modulation of luciferase expression by the small molecules investigated (Figure S4A). The HG5LN PPAR reporter cells therefore allow comparison of the functional activity at, and selectivity of different ligands for, PPARα and γ. […] As expected ([Abu Aboud et al., 2015]), GW6471 potently antagonized PPARα (Figure 4E and Table 1).
(§3) A transfected […] cell line HG5LN was used ([Balaguer et al., 2001]). These cells were cultured in Dubecco's modified Eagle's medium (DMEM-F12 Thermo Fisher Scientific) with phenol red and supplemented with 5% foetal calf serum, incubated at 37°C in a 5% CO2/95% air-humidified atmosphere. Luciferase assays were performed in DMEM-F12 (Thermo Fisher Scientific) without phenol red and supplemented with 5% dextran-coated charcoal-stripped FCS (test culture medium), puromycin (Thermo Fisher Scientific) 0.5 μg/mL and geneticin (Thermo Fisher Scientific) 1 mg/mL. Cells were seeded at a density of 5 x 10^4 cells/well and incubated for 8 h at 37°C in a 96-well plate white opaque tissue culture plates (Becton-Dickinson). Tested compounds were added in serial dilutions and incubated for 16 h at 37°C. After incubation, the medium containing the effectors was carefully removed and replaced by culture medium containing 3 x 10^−4 mol/L luciferin (Sigma Chemicals). After 5 min incubation at room temperature, the 96-well plate was then read with a Microbeta Wallac luminometer and the luminescence was measured in the living cells for 2 s. All experiments were performed in quadruplicate.

For test [6], the target named is T1, PPARγ. Further details: expressed in transfected cells; host or cells: HG5LN (HeLa-derived, GAL4RE-luciferase); method as in Seimandi et al., 2005. As to conditions: inhibition of agonism by 20 nM rosiglitazone (BRL49653), ref Seimandi et al., 2005, read-out: Functionality, Lit. IC50; cited from earlier work.
Test [7] concerns the target T2, PPARα. Further details: expressed in transfected cells; host or cells: HG5LN (HeLa-derived, GAL4RE-luciferase); method as in Seimandi et al., 2005. As to conditions: ref Seimandi et al., 2005, cited from earlier work.
The target of test [8] is T2, PPARα. In words: HG5LN reporter cell assay, PPARα-mediated transcription. It counts as cell-based. Further details: expressed in transfected cells; host or cells: HG5LN (HeLa-derived, GAL4RE-luciferase).
Excerpt: as §2, §3

For test [9], the system named is brain metastases from melanoma and breast cancer. More on the design: method as in Zou et al., 2019. The conditions noted are these: murine models; ref Zou et al., 2019; cited from earlier work.
Test [10] deals with SC model of melanoma or a metastatic model of lung cancer. Further details: method as in Zou et al., 2019. The conditions noted are these: ref Zou et al., 2019; cited from earlier work.
Another test has as its system VGE62. As to the kind of experiment: MTT cell metabolic activity assay, VGE62. The conditions noted are these: VGE62, arachidonic acid 5 and 10 μM, p <0.05. It is filed as cell-based, human. The procedure: (§4) Cells were harvested and seeded in 96-flat well plates (Corning) at a density of 5 x 10^4 cells/mL overnight. Media was removed and 100 μL media with GW6471 or GW9662 at indicated concentrations was added to each well. Cell viability and toxicity were measured at 48 h. Cells were incubated with 50 μL of a 2 mg/mL solution of (3-(4,5-dimethyl-thiazole-2-yl)-2,5-[…] tetrazolium (MTT, Sigma-Aldrich) in PBS for 4 h and then exposed to 100 μL dimethyl sulfoxide (DMSO; Sigma-Aldrich). Cell viability was measured by absorption at 570 nm in a microplate spectrophotometer (Spectromax 250 plate reader). Results are shown as relative cell viability.

The subject of another test is AB1. In words: MTT cell metabolic activity assay, AB1. As to conditions: AB1, arachidonic acid 5 and 10 μM, p <0.05. It counts as cell-based, mouse. The procedure: as §4
For test [11], the system named is HAP1, HAP1 PPARA KO, and HAP1 PPARG KO cell lines. As to the kind of experiment: MTT cell metabolic activity assay, HAP1 lines. It counts as cell-based, human. As to conditions: arachidonic acid 5 and 10 μM, p <0.0001. The procedure: as §4
Another test deals with AE17. As to the kind of experiment: MTT cell metabolic activity assay, AE17. It is filed as cell-based, mouse. The conditions noted are these: AE17, arachidonic acid 5 and 10 μM, p <0.05. The procedure: as §4

Read-outs that look alike come from different tables or passages of the source.

As to `O=C(Nc1ccccc1)c1cc([N+](=O)[O-])ccc1Cl` [GW9662], the IC50 (usually the point on the concentration scale where inhibition reaches its midpoint) at PPARγ [1] is 0.0054 ± 0.0006 µM; on PPARγ [2], 0.0124 ± 0.0036 µM; on PPARα [3], 0.214 ± 0.0646 µM; on PPARα [4], 0.039 ± 0.004 µM; on PPARγ [5] (inhibition of agonism by 30 nM rosiglitazone, 16 h incubation, mean of 3 experiments ± SEM), 0.004 ± 0.0026 µM; at PPARγ [6], 0.0038 ± 0.0013 µM. The IC50 is 0.188 ± 0.043 µM at PPARα [7] (PPARα, inhibition of agonism by 30 nM GW7647, read-out: Functionality, Lit. IC50) and 0.131 ± 0.031 µM on PPARα [8] (inhibition of agonism by 10 nM GW7647, 16 h incubation, mean of 3 experiments ± SEM). The “Functionality, Type” value on PPARγ [5] is listed as “antagonist”; at PPARα [8] it was “partial agonist”. Moreover, the EC50 (commonly the concentration at which the effect is half-maximal) at PPARα [7] (PPARα partial agonism, read-out: Functionality, Lit. EC50) is 0.026 ± 0.009 µM. Besides, the “Maximal activity reached (partial agonism)” value on PPARα [7] (PPARα) was “j 33% of maximal activity ([Seimandi et al., 2005])”.
In the case of `O=C(Nc1ccncc1)c1cc([N+](=O)[O-])ccc1Cl` [T0070907], the Brain metastases entry in [9] is “significant decrease of brain metastases from melanoma and breast cancer”. Besides, in test [10], the Tumor growth entry is on record as “did not find an inhibitory effect on tumor growth”.
Turning to `CCCCC/C=C\C/C=C\C/C=C\C/C=C\CCCC(=O)O` [arachidonic acid], the “Proliferation (MTT)” value in the test on VGE62, with AB1 and with AE17 was “increased proliferation in a concentration-dependent manner” throughout. Also, in test [11], the “Proliferation (MTT) in HAP1 parental versus PPARA/PPARG KO cells” value is given as “significant increase in proliferation, but only in the HAP1 parental cell line”.

(Values after article PMC8692993, “PPARα and PPARγ activation is associated with pleural mesothelioma invasion but therapeutic inhibition is ineffective” (iScience, 2021).)
